The record followed here is patent publication US20200239938A1 (priority 2017, published 2020).

Holding throughout (type): cell-based
Experiment [1] concerns Salmonella enterica subsp. enterica DSM-5569. In words: drop plate enumeration of viable cells on tryptic soy agar. On the set-up: key to drop plate growth: +++: bacterial lawn; ++: few colonies; +: single colonies; −: no growth observable. As to conditions: for viable cells at the start of cultivation: 0 h. The text has this:
(§1) The pathogens of interest Salmonella enterica subsp. enterica and Campylobacter jejuni were cultivated in microtiter plate scale in order to enable the simultaneous application of four different starting culture concentrations and treatments (Table 3). For analysis, samples for DNA extraction were taken after different times of cultivation and applied for qPCR enumeration of Salmonella enterica subsp. enterica and Campylobacter jejuni specific genes. As the qPCR assay is designed to record both viable and non-viable cells, an additional viability check was performed for AB treated cultures and the untreated controls.
(§2) In order to evaluate the effect of bactericidic effect Kanamycin, drop plate tests were performed to determine the number of viable cells. Three dilutions of a ten-fold series of the high (dilutions 10^−3, 10^−4 and 10^−5) and low (dilutions 10′, 10^−2 and 10^−3) inoculated culture after 0 and 6 h were plated in triplicates on CBA (Campylobacter) or tryptic soy agar (TSA) (Salmonella) by dropping 10 μl on the agar. The plates were evaluated regarding growth at the distinct log dilutions after 24 h incubation (41° C. microaerophilic for Campylobacter, 37° C. aerobic for Salmonella).

The test system of experiment [2] is Campylobacter jejuni DSM-24306. In words: microtiter plate cultivation assay with qPCR enumeration of the Cj0414 target gene (growth curves, growth rate). The note with it: Butyrate 25 mM; for growth rate: cultivation period of 0 to 7 h, very high to low inoculum, GutCare 10% (v/v).
Description: as §1
For Campylobacter jejuni experiments the DSMZ strain DSM-24306 was applied. The inoculum culture was produced by a first overnight cultivation on Columbia Blood Agar (CBA) followed by an overnight cultivation in Mueller-Hinton broth (MH). All cultivations took place under microaerophilic conditions (5% O2, 10% CO2, and […]) at 41° C.
The actual assay was carried out in microtiter plate format containing a total volume of 200 μl. Following media for the different treatment conditions were prepared according to Table 4. For the probiotic treatments (Ecobiol and GutCare), sterile filtrated supernatant of an overnight culture (=cell-free) or non-sterile filtrated, cell-containing supernatant of the same overnight culture was applied.
For C. jejuni all treatments were prepared in MH medium and for S. enterica in LBG respectively. Strains were cultivated under the conditions described in 2.1. Inoculated medium without any treatment served as an untreated control.
For each intervention and for the untreated control, following inoculum concentrations given in starting quantity of the Salmonella enterica subsp. enterica and Campylobacter jejuni specific target gene per ml culture were applied for the start of the assay:
From each concentration and treatment, enough wells were prepared to extract DNA from three well replicates per time point and treatment. For Campylobacter, DNA was extracted after 0, 7, 24 and 48 h. For Salmonella, 0, 2, 4, 6, 24 and 30 h of cultivation were chosen. […]
(§3) For enumeration of Salmonella or Campylobacter, primers and probes binding in conserved genetic regions, specific for each species were applied in qPCR assays with a total volume of 30 μl and a DNA eluate volume of 10 μl. […] Absolute quantification of targets was performed under consolidation of standard curves that were carried with each run. Using the standard curves, the starting quantity (SQ) of the specific target was calculated for each sample. […]
To outline the effect of each treatment, the difference of growth rates between untreated and treated cultures was calculated for each starting inoculum concentration as following: […]
For orientation: Quantitative PCR measures a nucleic acid by following its amplification.

The subject of experiment [3] is Campylobacter jejuni DSM-24306. In words: drop plate enumeration of viable cells on Columbia Blood Agar. On the set-up: key to drop plate growth: +++: bacterial lawn; ++: few colonies; +: single colonies; −: no growth observable. The note with it: for viable cells at the start of cultivation: 0 h.
Description: as §1, §2

The subject of experiment [4] is Salmonella enterica subsp. enterica DSM-5569. Kind of experiment: drop plate enumeration of viable cells on tryptic soy agar. Set-up: key: +++: bacterial lawn; ++: few colonies; +: single colonies; −: no growth observable.
Experiment [5] deals with Campylobacter jejuni DSM-24306. Kind of experiment: drop plate enumeration of viable cells on Columbia Blood Agar. Set-up: key: +++: bacterial lawn; ++: few colonies; +: single colonies; −: no growth observable.
Experiment [6] concerns Salmonella enterica subsp. enterica DSM-5569. Kind of experiment: microtiter plate cultivation assay with qPCR enumeration of the hilA target gene (growth curves, growth rate).
Description: as §1, with “controls. […]” for “controls.”
For each intervention and for the untreated control, following inoculum concentrations given in starting quantity of the Salmonella enterica subsp. enterica and Campylobacter jejuni specific target gene per ml culture were applied for the start of the assay: […]
as §3

Where [7] appears, read: High concentrated, After 0 h, dilution 10^−5.
The mark [8] stands for this setting: High concentrated, After 6 h, dilution 10^−5.
Where [9] appears, read: Low concentrated, After 0 h, dilution 10^−3.
Where [10] appears, read: Low concentrated, After 6 h, dilution 10^−3.
Where [11] appears, read: High concentrated, After 0 h, dilution 10^−6.
Where [12] appears, read: High concentrated, After 0 h, dilution 10^−7.
The mark [13] stands for this setting: High concentrated, After 6 h, dilution 10^−6.
[14] abbreviates: High concentrated, After 6 h, dilution 10^−7.
The mark [15] stands for this setting: Low concentrated, After 0 h, dilution 10^−4.
The mark [16] stands for this setting: Low concentrated, After 0 h, dilution 10^−5.
Setting [17] is: Low concentrated, After 6 h, dilution 10^−4.
[18] abbreviates: Low concentrated, After 6 h, dilution 10^−5.

Molecules are shown by their SMILES.

On to `NC[C@H]1O[C@H](O[C@H]2[C@H](O)[C@@H](O[C@H]3O[C@H](CO)[C@@H](O)[C@H](N)[C@H]3O)[C@H](N)C[C@@H]2N)[C@H](O)[C@@H](O)[C@@H]1O` [Kanamycin], for which the drop plate growth entry in experiment [1] (setting [7]) is on record as “+++”; in experiment [1] (setting [8]) it was “−”; in experiment [1] (setting [9]), “+++”; in experiment [1] (setting [10]), “−”; in experiment [3] (setting [7]), “++”; in experiment [3] (setting [8]), “−”. The drop plate growth result is “++” in experiment [3] (setting [9]); “−” in experiment [3] (setting [10]); “++” in experiment [4] (setting [11]); “+” in experiment [4] (setting [12]); “−” in experiment [4] (setting [13]); “−” in experiment [4] (setting [14]). In addition, the drop plate growth entry in experiment [4] (setting [15]) is listed as “++”; in experiment [4] (setting [16]), “+”; in experiment [4] (setting [17]), “−”; in experiment [4] (setting [18]), “−”; in experiment [5] (setting [11]), “+”; in experiment [5] (setting [12]), “−”. Further, the drop plate growth result in experiment [5] (setting [13]) is on record as “−”; in experiment [5] (setting [14]), “−”; in experiment [5] (setting [15]), “++”; in experiment [5] (setting [16]), “+”; in experiment [5] (setting [17]), “−”; in experiment [5] (setting [18]), “−”. Also, the “viable cells at the start of cultivation” value was 6-7 log in experiment [1] (high concentrated inoculum), 5 log in experiment [1] (low concentrated inoculum), 6-7 log in experiment [3] (high concentrated inoculum) and 5 log in experiment [3] (low concentrated inoculum). Moreover, in experiment [2] (Kanamycin 50 μl/ml), the growth rate is around 0.13.
For the molecule `CCCC(=O)[O-].[Na+]` [sodium butyrate, Sodium butyrate], the “difference of the growth rates (delta) from untreated control” value in experiment [6] (0 to 7 h, in relation to inoculum concentration (very high to low)) is “effect is rather low for all concentrations”. The “growth curve (target starting quantity (SQ) per ml culture, qPCR)” value is recorded as “strong exponential growth during the first 7 h” in experiment [6] (all inoculum concentrations, LBG, 37° C. aerobic, Butyrate 25 mM, Ecobiol 10% (v/v), 0-30 h) and “inhibitory effect” in experiment [2] (all inoculum concentrations, MH medium, 41° C. microaerophilic, GutCare (cell-free) 10% (v/v), Kanamycin 50 μl/ml, 0-48 h). Besides, the “plateau SQ” value in experiment [2] (compared with untreated control) was “significantly lower plateau SQ”. The growth rate result in experiment [2] (Kanamycin 50 μl/ml) is given as “around 0.24”.
